Assay: xn = mol fraction of the nth substance listed
Conditions: 101 kPa, x2 = 0

CC[NH3+].O=[N+]([O-])[O-] + CC[NH+](CC)CC.O=[N+]([O-])[O-]
Conditions | electrical conductivity [S/m] | viscosity [mPa·s]
303.15 K | 2.6 | 31
308.15 K | 2.97 | 26.5
318.15 K | 3.78 | 20
328.15 K | – | 15.6
333.15 K | – | 13.8
338.15 K | – | 12.5
343.15 K | – | 11.2
348.15 K | – | 10.2
353.15 K | – | 9.2

Reference: a compilation of properties of binary mixtures (doi:10.1021/acs.jpcb.5b11900)
